In the Deep4Chem optical property database:

Experiment: solvent given as SMILES

Work on `CCN(CC)c1ccc2cc(/C=C/C(O)=C3\CC/C(=C\c4cc5ccc(N(CC)CC)cc5oc4=O)C3=O)c(=O)oc2c1` yielded an absorption maximum (in C1COCCO1) of 513 nm, an absorption maximum (in CC#N) of 532 nm and an absorption maximum (in CC(C)=O) of 526 nm. The absorption maximum (in CCOC(C)=O) was 516 nm, the absorption maximum (in CN(C)C=O) was 546 nm and the absorption maximum (in CS(C)=O) was 556 nm. It also gave an absorption maximum (in Cc1ccccc1) of 511 nm and an absorption maximum (in ClC(Cl)Cl) of 525 nm.

For `CC1=CC(C)=[N+]2C1=C(c1ccc(I)cc1)c1c(C)cc(C)n1[B-]2(F)F`, the absorption maximum (in ClC(Cl)Cl) was 504 nm.

Compound `CN(C)c1ccc(C2=[N+]3C(=Nc4c5ccccc5c(-c5ccc(N(C)C)cc5)n4[B-]3(F)F)c3ccccc32)cc1` has an absorption maximum (in ClCCl) of 794 nm.

Compound `c1ccc(Nc2nc(Nc3ccccc3)nc(Nc3ccc4cc5ccccc5cc4c3)n2)cc1` has an absorption maximum (in C1COCCO1) of 402 nm, an absorption maximum (in CC#N) of 401 nm and an absorption maximum (in CCCCOCCCC) of 402 nm. It also gave an absorption maximum (in CCOC(C)=O) of 402 nm.

For `Cc1cc(-n2c3ccccc3c3cc(C#N)ccc32)ccc1-c1ccc(S(=O)(=O)c2ccccc2)cc1C`, the absorption maximum (in Cc1ccccc1) was 341 nm.

In the case of `Cc1cc2ccccc2c2c1c1ccccc1n2-c1ccc(C#N)cc1`, the absorption maximum (in ClCCl) is reported as 303 nm.

`c1ccc2c(c1)ccc1ncc3ccc4cnccc4c3c12` gave an absorption maximum (in CC#N) of 403 nm.

Compound `COC(=O)C(NC(=O)CCNc1cccc2ccccc12)c1ccccc1` (configuration not stated) has an absorption maximum (in CCO) of 330 nm.

Compound `COCCC1=Cc2nc1ccc1[nH]c(cc1CCOC)c1nc(ccc3[nH]c2cc3CCO)C(CCOC)=C1` has an absorption maximum (in Cc1ccccc1) of 637 nm.

With `CCN(CC)c1ccc(/C=C/c2ccc(-c3ccc(/C=C/c4ccc(N(CC)CC)cc4)s3)s2)cc1` the absorption maximum (in Cc1ccccc1) was 467.9 nm.

Compound `COc1ccc(C2=[N+]3C(=Nc4c(-c5cc(OC)c(OC)c(OC)c5Br)c(-c5ccc(C(C)(C)C)cc5)c(-c5ccc(OC)cc5)n4[B-]3(F)F)C(c3cc(OC)c(OC)c(OC)c3Br)=C2c2ccc(C(C)(C)C)cc2)cc1` has an absorption maximum (in Cc1ccccc1) of 706 nm.

Compound `c1ccc2c(c1)-c1ccccc1C21c2cc(-c3ccc4ccc5cccc6ccc3c4c56)ccc2-c2ccc(-c3ccc4ccc5cccc6ccc3c4c56)cc21` has an absorption maximum (in ClC(Cl)Cl) of 364 nm.

Work on `O=C(O)c1ccc(C(=O)O)c2cc3ccccc3cc12` yielded an absorption maximum (in C1CCOC1) of 396 nm and an absorption maximum (in CN(C)C=O) of 390 nm.

With `O=C(O)CCCOc1cc2ccc3cccc4ccc(c1)c2c34` the absorption maximum (in CO) was 382 nm.

Compound `c1ccc(-c2nc(-c3ccccc3)nc(-c3ccc(-n4c5ccccc5c5cc6c(cc54)C(c4ccccc4)(c4ccccc4)c4ccccc4-6)cc3)n2)cc1` has an absorption maximum (in Cc1ccccc1) of 366 nm.

Work on `O=S(=O)(c1cccc(N2c3ccccc3Oc3ccccc32)c1)c1cccc(N2c3ccccc3Oc3ccccc32)c1` yielded an absorption maximum (in C1CCOC1) of 317 nm, an absorption maximum (in Cc1ccccc1) of 308 nm and an absorption maximum (in ClC(Cl)Cl) of 315 nm.

In the case of `CCOC(=O)/C(C)=C/C1=C(c2ccc(C)cc2)C2=Nc3c(-c4ccc(C)cc4)c(-c4ccc(OC)cc4)c(-c4ccc(C)cc4)n3[B-](F)(F)[N+]2=C1c1ccc(C)cc1`, the absorption maximum (in ClC(Cl)Cl) is reported as 670 nm.

For `CCC(CC)n1c2ccccc2c2cc3c(cc21)c1ccccc1n3C(CC)CC`, the absorption maximum (in ClC(Cl)Cl) was 419 nm.

Work on `Cc1c(C)n2c(COC(=O)c3ccc(F)cc3)c(C)c(=O)n2c1=O` yielded an absorption maximum (in CCO) of 375 nm.

In the case of `O=C1[C@@H]2[C@H](C(=O)N1c1cccc3cc4ccccc4cc13)[C@@H]1C=C[C@H]2C1`, the absorption maximum (in ClC(Cl)Cl) is reported as 384 nm.

Work on `c1ccc(B2Nc3cc4c(cc3-c3occc32)NB(c2ccccc2)c2ccoc2-4)cc1` yielded an absorption maximum (in ClCCl) of 388 nm.

For `O=C(N/N=C/c1ccccc1O)c1ccccc1`, the absorption maximum (in C1CCOC1) was 334 nm, the absorption maximum (in CC#N) was 333 nm and the absorption maximum (in CC(C)=O) was 415 nm. For the same compound, the absorption maximum (in CCO) was 400 nm, the absorption maximum (in CN(C)C=O) was 397 nm and the absorption maximum (in CS(C)=O) was 329 nm. For the same compound, the absorption maximum (in ClCCl) was 330 nm.

`CCOC(=O)c1sc2nc(C)c(C)c(C#N)c2c1N` gave an absorption maximum (in c1ccccc1) of 406 nm.

Compound `Cc1ccc(O)c(-c2[nH]c(=O)n3c2-c2ccccc2C3=O)c1` has an absorption maximum (in CC#N) of 394 nm, an absorption maximum (in CO) of 399 nm and an absorption maximum (in ClCCl) of 393 nm.

`O=C([O-])c1ccc(C(=O)[O-])c(C2=c3cc4c5c(c3Oc3c2cc2c6c3CCCN6CCC2)CCC[N+]=5CCC4)c1` gave an absorption maximum (in CCO) of 571 nm and an absorption maximum (in O) of 574 nm.
